From patent US6355799B1, “Substituted benzene compounds, process for their preparation, and herbicidal and defoliant compositions containing them” (ISK Americas Incorporated, priority 1997, dated 2002)

Tests used:
Assay type in all cases: in vivo
[1] = test system: redroot pigweed (Amaranthus retroflexus, AMARE); experiment: Pre-emerge test, greenhouse herbicide activity screening; settings: rating scale 0-100, 14 days after application
Method in brief: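 Rating: 0–100 visual injury, 14 DAA. Application: acetone, 187 l/ha, 15–1000 g ai/ha, flat-fan track sprayer with nozzle 40–45 cm above soil or canopy. Post-emerge runs used 0.25% v/v surfactant on 2–3 leaf plants.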

[2] = test system: upland rice (Oryza sp., var. Tebonnet, RICE); experiment: Pre-emerge test, crop safety; settings: rating scale 0-100, 14 days after application
Method in brief: (§1)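 Herbicidal damage is scored 0 (none) to 100 (complete plant death) two weeks after a simulated field spray. Rates span 15–1000 g ai/ha, delivered in acetone at 187 l/ha. For post-emergence treatments, plants have 2–3 leaves and the spray carries 0.25% v/v non-ionic surfactant.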

[3] = test system: field corn (Zea mays L., var. Dekalb 535, CORN); experiment: Pre-emerge test, crop safety; settings: rating scale 0-100, 14 days after application
Method in brief: as §1

[4] = test system: upland rice (Oryza sp., var. Tebonnet, RICE); experiment: Post-emerge test, crop safety; settings: rating scale 0-100 (0 no damage, 100 complete death), 14 days after application
Method in brief: (§2)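 Sandy loam pots; pre-emerge: sown 1 d pre-spray, surface-watered after, then bottom-watered. Post-emerge: sown 8–21 d before, 2–3 leaf stage, + 0.25% v/v NIS, bottom-watered. Acetone, 187 l/ha track spray, 15–1000 g ai/ha. 0–100 injury score, day 14.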

[5] = test system: field corn (Zea mays L., var. Dekalb 535, CORN); experiment: Post-emerge test, crop safety; settings: rating scale 0-100 (0 no damage, 100 complete death), 14 days after application
Method in brief: as §2

[6] = test system: lambsquarters (Chenopodium album, CHEAL); experiment: Pre-emerge test, greenhouse herbicide activity screening; settings: rating scale 0-100, 14 days after application
Method in brief: as §2

[7] = test system: velvetleaf (Abutilon theophrasti, ABUTH); experiment: as above; settings: rating scale 0-100, 14 days after application
Method in brief: as §2

[8] = test system: ivyleaf morningglory (Ipomoea hederacea, IPOHE); experiment: as above; settings: rating scale 0-100, 14 days after application
Method in brief: as §2

[9] = test system: johnsongrass (Sorghum halepense, SORHA); experiment: as above; settings: rating scale 0-100, 14 days after application
Method in brief: as §2

[10] = test system: common ragweed (Ambrosia artemisizfolia L., AMBEL); experiment: as above; settings: rating scale 0-100, 14 days after application
Method in brief: as §2

[11] = test system: large crabgrass (Digitaria sanguinalis, DIGSA); experiment: as above; settings: rating scale 0-100, 14 days after application
Method in brief: as §2

[12] = test system: green foxtail (Setaria viridis, SETVI); experiment: as above; settings: rating scale 0-100, 14 days after application
Method in brief: as §2

[13] = test system: sicklepod (Cassia obtusifolia, CASOB); experiment: as above; settings: rating scale 0-100, 14 days after application
Method in brief: as §2

[14] = test system: barnyardgrass (Echinochloa crus-galli, ECHCG); experiment: as above; settings: rating scale 0-100, 14 days after application
Method in brief: as §2

[15] = test system: lambsquarters (Chenopodium album, CHEAL); experiment: Post-emerge test, greenhouse herbicide activity screening; settings: rating scale 0-100 (0 no damage, 100 complete death), 14 days after application
Method in brief: (§3)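 Each test used a mechanized track sprayer delivering 187 l/ha of acetone solution at 15–1000 g ai/ha. Post-emerge foliage at 2–3 leaves was treated with added 0.25% v/v non-ionic surfactant and bottom-watered only. Injury was assessed on day 14, where 100 means total kill.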

[16] = test system: velvetleaf (Abutilon theophrasti, ABUTH); experiment: as above; settings: rating scale 0-100 (0 no damage, 100 complete death), 14 days after application
Method in brief: as §3

[17] = test system: ivyleaf morningglory (Ipomoea hederacea, IPOHE); experiment: as above; settings: rating scale 0-100 (0 no damage, 100 complete death), 14 days after application
Method in brief: as §3

[18] = test system: johnsongrass (Sorghum halepense, SORHA); experiment: as above; settings: rating scale 0-100 (0 no damage, 100 complete death), 14 days after application
Method in brief: as §3

[19] = test system: redroot pigweed (Amaranthus retroflexus, AMARE); experiment: as above; settings: rating scale 0-100 (0 no damage, 100 complete death), 14 days after application
Method in brief: as §3

[20] = test system: large crabgrass (Digitaria sanguinalis, DIGSA); experiment: as above; settings: rating scale 0-100 (0 no damage, 100 complete death), 14 days after application
Method in brief: as §3

[21] = test system: green foxtail (Setaria viridis, SETVI); experiment: as above; settings: rating scale 0-100 (0 no damage, 100 complete death), 14 days after application
Method in brief: as §3

[22] = test system: sicklepod (Cassia obtusifolia, CASOB); experiment: as above; settings: rating scale 0-100 (0 no damage, 100 complete death), 14 days after application
Method in brief: as §3

[23] = test system: barnyardgrass (Echinochloa crus-galli, ECHCG); experiment: as above; settings: rating scale 0-100 (0 no damage, 100 complete death), 14 days after application
Method in brief: as §3

C=COC(=O)C(C)(Cl)Cc1c(OC)c(Cl)cc(F)c1-n1c(=O)cc(C(F)(F)F)n(C)c1=O (stereo not shown) [14-42]
90: Pre-emerge herbicidal activity, phytotoxicity rating CHEAL ([6]; 63 g ai/ha) | Post-emerge Herbicidal Activity, phytotoxicity rating CASOB ([22]; Rate 250 g ai/ha)
20: Pre-emerge phytotoxicity rating, crop damage CORN ([3]; 250 g ai/ha) | Pre-emerge herbicidal activity, phytotoxicity rating ECHCG ([14]; 250 g ai/ha)
100: Pre-emerge herbicidal activity, phytotoxicity rating AMARE ([1]; 250 g ai/ha) | Post-emerge phytotoxicity rating RICE (crop damage) ([4]; Rate 250 g ai/ha) | Post-emerge phytotoxicity rating CORN (crop damage) ([5]; Rate 63 g ai/ha) | Post-emerge phytotoxicity rating CORN (crop damage) ([5]; Rate 250 g ai/ha) | Pre-emerge herbicidal activity, phytotoxicity rating CHEAL ([6]; 250 g ai/ha) | Pre-emerge herbicidal activity, phytotoxicity rating AMBEL ([10]; 250 g ai/ha) | Post-emerge Herbicidal Activity, phytotoxicity rating CHEAL ([15]; Rate 63 g ai/ha) | Post-emerge Herbicidal Activity, phytotoxicity rating CHEAL ([15]; Rate 250 g ai/ha) | Post-emerge Herbicidal Activity, phytotoxicity rating ABUTH ([16]; Rate 63 g ai/ha) | Post-emerge Herbicidal Activity, phytotoxicity rating ABUTH ([16]; Rate 250 g ai/ha) | Post-emerge Herbicidal Activity, phytotoxicity rating IPOHE ([17]; Rate 63 g ai/ha) | Post-emerge Herbicidal Activity, phytotoxicity rating IPOHE ([17]; Rate 250 g ai/ha) | Post-emerge Herbicidal Activity, phytotoxicity rating AMARE ([19]; Rate 63 g ai/ha) | Post-emerge Herbicidal Activity, phytotoxicity rating AMARE ([19]; Rate 250 g ai/ha) | Post-emerge Herbicidal Activity, phytotoxicity rating DIGSA ([20]; Rate 250 g ai/ha) | Post-emerge Herbicidal Activity, phytotoxicity rating SETVI ([21]; Rate 63 g ai/ha) | Post-emerge Herbicidal Activity, phytotoxicity rating SETVI ([21]; Rate 250 g ai/ha) | Post-emerge Herbicidal Activity, phytotoxicity rating ECHCG ([23]; Rate 63 g ai/ha) | Post-emerge Herbicidal Activity, phytotoxicity rating ECHCG ([23]; Rate 250 g ai/ha)
0: Pre-emerge phytotoxicity rating, crop damage CORN ([3]; 63 g ai/ha) | Pre-emerge herbicidal activity, phytotoxicity rating IPOHE ([8]; 63 g ai/ha) | Pre-emerge herbicidal activity, phytotoxicity rating SORHA ([9]; 63 g ai/ha) | Pre-emerge herbicidal activity, phytotoxicity rating SORHA ([9]; 250 g ai/ha) | Pre-emerge herbicidal activity, phytotoxicity rating AMBEL ([10]; 63 g ai/ha) | Pre-emerge herbicidal activity, phytotoxicity rating DIGSA ([11]; 63 g ai/ha) | Pre-emerge herbicidal activity, phytotoxicity rating CASOB ([13]; 63 g ai/ha) | Pre-emerge herbicidal activity, phytotoxicity rating CASOB ([13]; 250 g ai/ha) | Pre-emerge herbicidal activity, phytotoxicity rating ECHCG ([14]; 63 g ai/ha)
50: Pre-emerge herbicidal activity, phytotoxicity rating DIGSA ([11]; 250 g ai/ha)
80: Pre-emerge herbicidal activity, phytotoxicity rating ABUTH ([7]; 63 g ai/ha) | Pre-emerge herbicidal activity, phytotoxicity rating SETVI ([12]; 250 g ai/ha)
10: Pre-emerge phytotoxicity rating, crop damage RICE ([2]; 63 g ai/ha)
30: Pre-emerge phytotoxicity rating, crop damage RICE ([2]; 250 g ai/ha) | Pre-emerge herbicidal activity, phytotoxicity rating IPOHE ([8]; 250 g ai/ha) | Pre-emerge herbicidal activity, phytotoxicity rating SETVI ([12]; 63 g ai/ha)
60: Post-emerge Herbicidal Activity, phytotoxicity rating SORHA ([18]; Rate 63 g ai/ha) | Post-emerge Herbicidal Activity, phytotoxicity rating CASOB ([22]; Rate 63 g ai/ha)
95: Pre-emerge herbicidal activity, phytotoxicity rating AMARE ([1]; 63 g ai/ha) | Post-emerge phytotoxicity rating RICE (crop damage) ([4]; Rate 63 g ai/ha) | Pre-emerge herbicidal activity, phytotoxicity rating ABUTH ([7]; 250 g ai/ha) | Post-emerge Herbicidal Activity, phytotoxicity rating SORHA ([18]; Rate 250 g ai/ha) | Post-emerge Herbicidal Activity, phytotoxicity rating DIGSA ([20]; Rate 63 g ai/ha)
